Target: recombinant human HPK1 (Homo sapiens (Human), UniProt Q92918)
Assay: HPK1 kinase assay (ADP-Glo)
Format: biochemical
Conditions: 25 μM ATP, MBP substrate
How it was run: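 Activity was read as ADP formed, detected by ADP-Glo luminescence after the reaction of 5 ng recombinant human HPK1 with MBP and ATP (stocks 0.5 μg/μl and 25 μM) for 40 min at 30 °C. Buffer was Tris pH 7.5 with MgCl2, BSA and DTT, with compound in 0.5% DMSO. IC50 came from inhibition curves.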

Chain of recombinant human HPK1 (Q92918 whole entry): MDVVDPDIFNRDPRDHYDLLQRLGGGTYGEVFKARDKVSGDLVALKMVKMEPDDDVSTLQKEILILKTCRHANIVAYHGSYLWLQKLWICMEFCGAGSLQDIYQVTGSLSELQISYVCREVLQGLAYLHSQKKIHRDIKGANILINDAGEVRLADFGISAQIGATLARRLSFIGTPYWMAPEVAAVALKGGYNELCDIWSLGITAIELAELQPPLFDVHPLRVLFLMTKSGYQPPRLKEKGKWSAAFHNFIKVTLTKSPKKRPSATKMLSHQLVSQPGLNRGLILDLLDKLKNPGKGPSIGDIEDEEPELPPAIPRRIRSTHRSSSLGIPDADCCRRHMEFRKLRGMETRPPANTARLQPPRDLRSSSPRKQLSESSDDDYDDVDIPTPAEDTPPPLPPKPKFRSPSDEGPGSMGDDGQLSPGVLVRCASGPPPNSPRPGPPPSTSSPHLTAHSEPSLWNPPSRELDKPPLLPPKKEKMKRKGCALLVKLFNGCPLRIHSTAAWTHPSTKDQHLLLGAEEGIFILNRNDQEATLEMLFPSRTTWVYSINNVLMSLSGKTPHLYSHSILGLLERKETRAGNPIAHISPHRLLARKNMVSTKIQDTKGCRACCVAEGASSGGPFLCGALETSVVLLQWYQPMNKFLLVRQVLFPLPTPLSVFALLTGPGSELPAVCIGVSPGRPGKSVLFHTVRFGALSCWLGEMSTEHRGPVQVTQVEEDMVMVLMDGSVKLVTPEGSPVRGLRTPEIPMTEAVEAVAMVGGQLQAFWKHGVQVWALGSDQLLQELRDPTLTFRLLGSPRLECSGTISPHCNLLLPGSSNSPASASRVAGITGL

Structure (SMILES) | IC50
O=C(Nc1cn2cc(-c3c(Cl)c(F)c(CN4CCC4)c4[nH]ncc34)ccc2n1)[C@@H]1C[C@@H]1F [Example 380, (1S,2S)-N-(6-(7-(azetidin-1-ylmethyl)-5-chloro-6-fluoro-1H-indazol-4-yl)imidazo[1,2-a]pyridin-2-yl)-2-fluorocyclopropane-1-carboxamide] | < 100 nM
CN(C)c1c(F)c(C(F)(F)F)c(-c2ccc3nc(NC(=O)[C@@H]4C[C@@H]4F)cn3c2)c2cn[nH]c12 [Example 307, (1S,2S)-N-(6-(7-(dimethylamino)-6-fluoro-5-(trifluoromethyl)-1H-indazol-4-yl)imidazo[1,2-a]pyridin-2-yl)-2-fluorocyclopropane-1-carboxamide] | < 100 nM
Cc1c(F)c(OCCOC(N)=O)c2[nH]ncc2c1-c1ccn2nc(NC(=O)[C@@H]3C[C@@H]3F)cc2c1 [Example 535, 2-((6-fluoro-4-(2-((1S,2S)-2-fluorocyclopropane-1-carboxamido)pyrazolo[1,5-a]pyridin-5-yl)-5-methyl-1H-indazol-7-yl)oxy)ethyl carbamate] | < 100 nM
CC(=S)Nc1c(F)c(Cl)c(-c2ccc3nc(NC(=O)[C@@H]4C[C@@H]4F)cn3c2)c2cn[nH]c12 [Example 411, (1S,2S)-N-(6-(5-chloro-7-ethanethioamido-6-fluoro-1H-indazol-4-yl)imidazo[1,2-a]pyridin-2-yl)-2-fluorocyclopropane-1-carboxamide] | < 100 nM
CN(C)C(=O)CSc1c(F)c(Cl)c(-c2ccc3nc(NC(=O)[C@@H]4C[C@@H]4F)sc3c2)c2cn[nH]c12 [Example 99, (1S,2S)-N-(6-(5-chloro-7-((2-(dimethylamino)-2-oxoethyl)thio)-6-fluoro-1H-indazol-4-yl)benzo[d]thiazol-2-yl)-2-fluorocyclopropane-1-carboxamide] | < 100 nM
O=C(Nc1nc2ccc(-c3c(Cl)c(F)cc4[nH]ncc34)nc2s1)[C@@H]1C[C@@H]1F [Example 153, (1S,2S)-N-(5-(5-chloro-6-fluoro-1H-indazol-4-yl)thiazolo[5,4-b]pyridin-2-yl)-2-fluorocyclopropane-1-carboxamide] | < 100 nM
C=CC(=O)Nc1cc(Cl)c(-c2ccc3nc(NC(=O)[C@@H]4C[C@@H]4F)cn3c2)c2cn[nH]c12 [Example 276, (1S,2S)-N-(6-(7-acrylamido-5-chloro-1H-indazol-4-yl)imidazo[1,2-a]pyridin-2-yl)-2-fluorocyclopropane-1-carboxamide] | < 100 nM
O=C(Nc1nc2ccc(-c3c(Cl)ccc4[nH]ncc34)cc2s1)[C@@H]1C[C@@H]1F [Example 30, (1S,2S)-N-(6-(5-chloro-1H-indazol-4-yl)benzo[d]thiazol-2-yl)-2-fluorocyclopropane-1-carboxamide] | 101 to 500 nM
COc1c(F)c(C)c(-c2ccc3nc(NC(=O)[C@@H]4C[C@@H]4F)cn3c2)c2cn[nH]c12 [Example 271, (1S,2S)-2-fluoro-N-(6-(6-fluoro-7-methoxy-5-methyl-1H-indazol-4-yl)imidazo[1,2-a]pyridin-2-yl)cyclopropane-1-carboxamide] | < 100 nM
Cc1c(F)c(C(F)F)c2[nH]ncc2c1-c1ccn2nc(NC(=O)[C@@H]3C[C@@H]3F)cc2c1 [Example 591, (1S,2S)-N-(5-(7-(difluoromethyl)-6-fluoro-5-methyl-1H-indazol-4-yl)pyrazolo[1,5-a]pyridin-2-yl)-2-fluorocyclopropane-1-carboxamide] | < 100 nM
CCC(=O)NC(C)c1c(F)c(Cl)c(-c2ccc3nc(NC(=O)[C@@H]4C[C@@H]4F)cn3c2)c2cn[nH]c12 (stereo partly drawn) [Example 424, (1S,2S)-N-(6-(5-chloro-6-fluoro-7-(1-propionamidoethyl)-1H-indazol-4-yl)imidazo[1,2-a]pyridin-2-yl)-2-fluorocyclopropane-1-carboxamide] | < 100 nM
Cc1ccc2[nH]ncc2c1-c1ccc2nc(NC(=O)C3CC(F)(F)C3)sc2c1 [Example 11, 3,3-difluoro-N-(6-(5-methyl-1H-indazol-4-yl)benzo[d]thiazol-2-yl)cyclobutane-1-carboxamide] | 501 to 1000 nM
O=C(Nc1nc2ccc(-c3c(Cl)c(F)c(SCCO)c4[nH]ncc34)cc2s1)[C@@H]1C[C@@H]1F [Example 79, (1S,2S)-N-(6-(5-chloro-6-fluoro-7-((2-hydroxyethyl)thio)-1H-indazol-4-yl)benzo[d]thiazol-2-yl)-2-fluorocyclopropane-1-carboxamide] | < 100 nM
O=C(Nc1cc2cc(-c3c(Cl)c(F)c(Br)c4[nH]ncc34)ccn2n1)[C@@H]1C[C@@H]1F [Example 480, (1S,2S)-N-(5-(7-bromo-5-chloro-6-fluoro-1H-indazol-4-yl)pyrazolo[1,5-a]pyridin-2-yl)-2-fluorocyclopropane-1-carboxamide] | < 100 nM
NCCSc1c(F)c(Cl)c(-c2ccc3nc(NC(=O)[C@@H]4C[C@@H]4F)sc3c2)c2cn[nH]c12 [Example 70, (1S,2S)-N-(6-(7-((2-aminoethyl)thio)-5-chloro-6-fluoro-1H-indazol-4-yl)benzo[d]thiazol-2-yl)-2-fluorocyclopropane-1-carboxamide] | < 100 nM
CCOc1c(F)c(N(C)C)c2[nH]ncc2c1-c1ccn2nc(NC(=O)[C@@H]3C[C@@H]3F)cc2c1 [Example 610, (1S,2S)-N-(5-(7-(dimethylamino)-5-ethoxy-6-fluoro-1H-indazol-4-yl)pyrazolo[1,5-a]pyridin-2-yl)-2-fluorocyclopropane-1-carboxamide] | < 100 nM
CN(c1c(F)c(Cl)c(-c2ccn3nc(NC(=O)[C@@H]4C[C@@H]4F)cc3c2)c2cn[nH]c12)C1CCC(N)CC1 (stereo partly drawn) [Example 514] | < 100 nM
Cc1c(F)c([S+](C)[O-])c2[nH]ncc2c1-c1ccc2nc(NC(=O)[C@@H]3C[C@@H]3F)cn2c1 (stereo partly drawn) [Example 299, (1S,2S)-2-fluoro-N-(6-(6-fluoro-5-methyl-7-(methylsulfinyl)-1H-indazol-4-yl)imidazo[1,2-a]pyridin-2-yl)cyclopropane-1-carboxamide] | 101 to 500 nM
CN(c1ccncc1)c1c(F)c(Cl)c(-c2ccn3nc(NC(=O)[C@@H]4C[C@@H]4F)cc3c2)c2cn[nH]c12 [Example 614, (1S,2S)-N-(5-(5-chloro-6-fluoro-7-(methyl(pyridin-4-yl)amino)-1H-indazol-4-yl)pyrazolo[1,5-a]pyridin-2-yl)-2-fluorocyclopropane-1-carboxamide] | < 100 nM
CC(c1c(F)c(Cl)c(-c2ccc3nc(NC(=O)[C@@H]4C[C@@H]4F)cn3c2)c2cn[nH]c12)[S+](C)[O-] (stereo partly drawn) [Example 443, (1S,2S)-N-(6-(5-chloro-6-fluoro-7-(1-(methylsulflnyl)ethyl)-1H-indazol-4-yl)imidazo[1,2-a]pyridin-2-yl)-2-fluorocyclopropane-1-carboxamide] | < 100 nM
COc1c(F)c(Cl)c(-c2ccn3nc(NC(=O)[C@@H]4C[C@@H]4F)cc3c2)c2cn[nH]c12 [Example 492, (1S,2S)-N-(5-(5-chloro-6-fluoro-7-methoxy-1H-indazol-4-yl)pyrazolo[1,5-a]pyridin-2-yl)-2-fluorocyclopropane-1-carboxamide] | < 100 nM
CC(=O)Nc1c(F)c(Cl)c(-c2ccc3nc(NC(=O)[C@@H]4C[C@@H]4F)sc3n2)c2cn[nH]c12 [Example 179, (1S,2S)-N-(5-(7-acetamido-5-chloro-6-fluoro-1H-indazol-4-yl)thiazolo[5,4-b]pyridin-2-yl)-2-fluorocyclopropane-1-carboxamide] | < 100 nM
O=C(Nc1cc2cc(-c3c(Cl)c(F)c(N4CCSCC4)c4[nH]ncc34)ccn2n1)[C@@H]1C[C@@H]1F [Example 631, (1S,2S)-N-(5-(5-chloro-6-fluoro-7-thiomorpholino-1H-indazol-4-yl)pyrazolo[1,5-a]pyridin-2-yl)-2-fluorocyclopropane-1-carboxamide] | < 100 nM
O=C(Nc1cc2cc(-c3c(Cl)c(F)c(NCC4CC4)c4[nH]ncc34)ccn2n1)[C@@H]1C[C@@H]1F [Example 654, (1S,2S)-N-(5-(5-chloro-7-((cyclopropylmethyl)amino)-6-fluoro-1H-indazol-4-yl)pyrazolo[1,5-a]pyridin-2-yl)-2-fluorocyclopropane-1-carboxamide] | < 100 nM
CSc1c(F)cc(-c2ccn3nc(NC(=O)[C@@H]4C[C@@H]4F)cc3c2)c2cn[nH]c12 [Example 589, (1S,2S)-2-fluoro-N-(5-(6-fluoro-7-(methylthio)-1H-indazol-4-yl)pyrazolo[1,5-a]pyridin-2-yl)cyclopropane-1-carboxamide] | < 100 nM
CN(C)C1CCC(N(C)c2c(F)c(Cl)c(-c3ccn4nc(NC(=O)[C@@H]5C[C@@H]5F)cc4c3)c3cn[nH]c23)CC1 (stereo partly drawn) [Example 502, (1S,2S)-N-(5-(5-chloro-7-((4-(dimethylamino)cyclohexyl)(methyl)amino)-6-fluoro-1H-indazol-4-yl)pyrazolo[1,5-a]pyridin-2-yl)-2-fluorocyclopropane-1-carboxamide] | < 100 nM
COC(=O)c1c(F)c(C)c(-c2ccc3nc(NC(=O)[C@@H]4C[C@@H]4F)sc3c2)c2cn[nH]c12 [Example 116, methyl 6-fluoro-4-(2-((1S,2S)-2-fluorocyclopropane-1-carboxamido)benzo[d]thiazol-6-yl)-5-methyl-1H-indazole-7-carboxylate] | < 100 nM
Cc1c(F)c(Br)c2[nH]ncc2c1-c1ccc2nc(NC(=O)[C@@H]3C[C@@H]3F)cn2c1 [Example 268, (1S,2S)-N-(6-(7-bromo-6-fluoro-5-methyl-1H-indazol-4-yl)imidazo[1,2-a]pyridin-2-yl)-2-fluorocyclopropane-1-carboxamide] | < 100 nM
CCC(C)Nc1c(F)c(Cl)c(-c2ccc3nc(NC(=O)[C@@H]4C[C@@H]4F)cn3c2)c2cn[nH]c12 (stereo partly drawn) [Example 370, (1S,2S)-N-(6-(7-(sec-butylamino)-5-chloro-6-fluoro-1H-indazol-4-yl)imidazo[1,2-a]pyridin-2-yl)-2-fluorocyclopropane-1-carboxamide] | < 100 nM
Cc1c(F)c(F)c2[nH]ncc2c1-c1ccc2nc(NC(=O)[C@@H]3C[C@@H]3F)sc2c1 [Example 109, (1S,2S)-N-(6-(6,7-difluoro-5-methyl-1H-indazol-4-yl)benzo[d]thiazol-2-yl)-2-fluorocyclopropane-1-carboxamide] | < 100 nM

Reference: patent US11649255B2, “Indazoles as hematopoietic progenitor kinase 1 (HPK1) inhibitors and methods using same” (1st Biotherapeutics, Inc., priority 2020, dated 2023)
